Results: patent publication US20260034130A1 (priority 2022, published 2026)

Tests used:
[1] = test system: patients with acute ischemic stroke or high-risk TIA; assay: AXIOMATIC-SSP NIHSS at the time of first recurrent stroke; format: in vivo, human; conditions: for NIHSS Value Mean / NIHSS Value Median / NIHSS Change from Baseline Mean / NIHSS Change from Baseline Median: first recurrent stroke
Source text: (§1) National Institutes of Health Stroke Scale (NIHSS), Modified Rankin Scale (mRS), Montreal Cognitive Assessment (MoCA), and Digit Symbol Substitution Test (subtest of WAIS-IV) were collected at baseline (at randomization for NIHSS), on Days 21 and 90, and at the time of a new stroke event. MoCA and DSST (subset of WAIS-IV) were read by a third-party central laboratory blinded to treatment.
(§2) Descriptive statistics and corresponding change from baseline (where applicable) assessed by the National Institutes of Health Stroke Score (NIHSS), modified Rankin Scale (mRS), Montreal Cognitive Assessment (MoCA), and Digit Symbol Substitution Test (subtest of WAIS-IV) were summarized by treatment group.

[2] = test system: patients with acute ischemic stroke or high-risk TIA; assay: AXIOMATIC-SSP clinical (symptomatic) ischemic stroke and undetermined stroke events, all randomized participants; format: in vivo, human
Procedure: The primary efficacy endpoint was the composite of incident ischemic stroke during the treatment period or new covert brain infarction detected by the comparison of 90-day and baseline MRIs. All images were read independently by 2 blinded neuroradiologists, and disagreements were resolved by consensus. […] Clinically overt strokes were determined by site investigators following standardized definitions. Briefly, to qualify as an outcome event, a clinical diagnosis of stroke required a sustained increase in the NIHSS score of ≥3 points that was not explained by other factors, such as infection, or was confirmed by imaging as a new infarct. Covert brain infarction is defined as small ischemic cerebral lesions that are detected on Day 90 MRI in the absence of a symptomatic ischemic stroke event. […]

[3] = test system: patients undergoing TKR (total knee replacement); conditions: 25 mg twice daily; cited from earlier work
[4] = test system: patients with acute ischemic stroke or high-risk TIA; assay: AXIOMATIC-SSP mRS at the time of first recurrent stroke; format: in vivo, human; conditions: for mRS Change from Baseline Mean / mRS Change from Baseline Median / mRS Value Mean / mRS Value Median: first recurrent stroke
Source text: as §1, §2

In the case of `C[C@@H]1CCC[C@H](n2cnc(-c3cc(Cl)ccc3-n3cc(Cl)nn3)cc2=O)c2cc(ccn2)-c2c(cnn2C(F)F)NC1=O` [milvexian, (5R,9S)-9-(4-(5-chloro-2-(4-chloro-1H-1,2,3-triazol-1-yl)phenyl)-6-oxopyrimidin-1(6H)-yl)-21-(difluoromethyl)-5-methyl-21H-3-aza-1(4,2)-pyridina-2(5,4)-pyrazolacyclonaphan-4-one], the “NIHSS Value Mean” value ([1]; 50 BID, N 11) is reported as 4.6, the “NIHSS Value Median” value ([1]; 50 BID, N 11) is reported as 3.0 and the “NIHSS Change from Baseline Mean” value ([1]; 100 BID, N 10) is reported as 5.2. For the same compound, the “NIHSS Change from Baseline Median” value ([1]; 100 BID, N 10) was 2.5, the “NIHSS Value Mean” value ([1]; 100 BID, N 10) was 7.1 and the “NIHSS Value Median” value ([1]; 100 BID, N 10) was 6.5. For the same compound, the “NIHSS Change from Baseline Mean” value ([1]; 200 BID, N 20) was 2.8, the “NIHSS Change from Baseline Median” value ([1]; 200 BID, N 20) was 1.0 and the “NIHSS Value Mean” value ([1]; 200 BID, N 20) was 4.4. For the same compound, the “NIHSS Value Median” value ([1]; 200 BID, N 20) was 2.5, the “NIHSS score at the time of a new stroke event compared with placebo” value ([1]; milvexian arms) was “numerically lower” and the “Subjects With Hemorragic Stroke n” value ([2]; 25 mg BID, N = 318) was 0. The “Subjects With Hemorragic Stroke, Incidence Rate (n/N %)” value ([2]; 25 mg BID, N = 318) was “(0) %”, the “Subjects With Undetermined Stroke, Incidence Rate (n/N %)” value ([2]; 25 mg BID, N = 318) was “(0) %” and the “Symptomatic Stroke Events: Subjects With Event, Incidence Rate (n/N %)” value (from here on “Symptomatic Stroke Events … (n/N %)”) ([2]; 25 mg BID, N = 318) was “(3.8) %”. For the same compound, the “Subjects With Hemorragic Stroke n” value ([2]; 25 mg QD, N = 328) was 0, the “Subjects With Hemorragic Stroke, Incidence Rate (n/N %)” value ([2]; 25 mg QD, N = 328) was “(0) %” and the “Subjects With Ischemic Stroke n” value ([2]; 25 mg QD, N = 328) was 15. For the same compound, the “Subjects With Undetermined Stroke, Incidence Rate (n/N %)” value ([2]; 25 mg QD, N = 328) was “(0) %”, the “Symptomatic Stroke Events: Subjects With Event n” value ([2]; 25 mg QD, N = 328) was 15 and the “Symptomatic Stroke Events … (n/N %)” value ([2]; 25 mg QD, N = 328) was “(4.6) %”. For the same compound, the “HR for preventing clinical ischemic strokes vs placebo” value ([2]; 25 mg twice daily, 95% CI 0.36-1.30) was 0.69, the “Subjects With Hemorragic Stroke n” value ([2]; 50 mg BID, N = 328) was 0 and the “Subjects With Hemorragic Stroke, Incidence Rate (n/N %)” value ([2]; 50 mg BID, N = 328) was “(0) %”. The “Subjects With Undetermined Stroke, Incidence Rate (n/N %)” value ([2]; 50 mg BID, N = 328) was “(0) %”, the “Symptomatic Stroke Events … (n/N %)” value ([2]; 50 mg BID, N = 328) was “(4.0) %” and the “Subjects With Hemorragic Stroke n” value ([2]; 100 mg BID, N = 310) was 0. The “Subjects With Hemorragic Stroke, Incidence Rate (n/N %)” value ([2]; 100 mg BID, N = 310) was “(0) %”, the “Subjects With Undetermined Stroke, Incidence Rate (n/N %)” value ([2]; 100 mg BID, N = 310) was “(0) %” and the “Symptomatic Stroke Events … (n/N %)” value ([2]; 100 mg BID, N = 310) was “(3.5) %”. For the same compound, the “Subjects With Hemorragic Stroke n” value ([2]; 200 mg BID, N = 351) was 0, the “Subjects With Hemorragic Stroke, Incidence Rate (n/N %)” value ([2]; 200 mg BID, N = 351) was “(0) %” and the “Subjects With Undetermined Stroke, Incidence Rate (n/N %)” value ([2]; 200 mg BID, N = 351) was “(0) %”. The “Symptomatic Stroke Events … (n/N %)” value ([2]; 200 mg BID, N = 351) was “(7.7) %”, the “time point for apparent onset of the clinical benefit vs placebo (Kaplan-Meier, time to ischemic stroke)” value ([2]; pooled doses of milvexian) was “about 10 days” and the “efficacy versus enoxaparin in AXIOMATIC-TKR” value [3] was “comparable efficacy to enoxaparin”. The “mRS Change from Baseline Mean” value ([4]; 25 BID, N 10) was 2.1, the “mRS Change from Baseline Median” value ([4]; 25 BID, N 10) was 2.0 and the “mRS Value Mean” value ([4]; 25 BID, N 10) was 2.6. The “mRS Value Median” value ([4]; 25 BID, N 10) was 3.0, the “mRS Change from Baseline Mean” value ([4]; 25 QD, N 13) was 1.9 and the “mRS Change from Baseline Median” value ([4]; 25 QD, N 13) was 2.0. The “mRS Value Mean” value ([4]; 25 QD, N 13) was 2.7, the “mRS Value Median” value ([4]; 25 QD, N 13) was 3.0 and the “mRS Change from Baseline Mean” value ([4]; 50 BID, N 11) was 1.7. For the same compound, the “mRS Change from Baseline Median” value ([4]; 50 BID, N 11) was 1.0, the “mRS Value Mean” value ([4]; 50 BID, N 11) was 2.3 and the “mRS Value Median” value ([4]; 50 BID, N 11) was 2.0. For the same compound, the “mRS Change from Baseline Mean” value ([4]; 100 BID, N 8) was 2.4, the “mRS Change from Baseline Median” value ([4]; 100 BID, N 8) was 2.5 and the “mRS Value Mean” value ([4]; 100 BID, N 8) was 2.9. The “mRS Value Median” value ([4]; 100 BID, N 8) was 3.0, the “mRS Change from Baseline Mean” value ([4]; 200 BID, N 19) was 1.4 and the “mRS Change from Baseline Median” value ([4]; 200 BID, N 19) was 1.0. The “mRS Value Mean” value ([4]; 200 BID, N 19) was 1.8, the “mRS Value Median” value ([4]; 200 BID, N 19) was 1.0 and the “mRS score at the time of a new stroke event compared with placebo” value ([4]; milvexian arms) was “numerically lower”.
